In patent US4264598A (priority 1980, dated 1981):

Tests used:
Erysiphe polygoni = experiment: Powdery mildew, % disease control; format: in vivo, Erysiphe polygoni (host: bean seedlings, var. Bountiful); conditions: 250 ppm spray; inoculated one day later; rated after about 10 days; relative to untreated check plants
Procedure: The powdery mildew test was made using bean seedlings (var. Bountiful) with well-developed primary leaves. The pathogen was Erysiphe polygoni. The bean seedlings were sprayed with a 250-ppm solution of the test compound in an acetone-water mixture containing a nonionic emulsifier. The treated plants were inoculated one day after spray application of the test compound with the pathogen. The plants were then maintained in a greenhouse at a 60-80% relative humidity and at a temperature of 68°-70° F. The rate of infection on the leaves was made after about 10 days. The percent disease control provided by a given test compound was based on the disease reduction relative to untreated check plants.

Septoria apii = format: in vivo, Septoria apii (host: celery, Utah); conditions: 250 ppm (Table I default); approximately 48 hours incubation then approximately 14 days; relative to untreated check plants
Phytophthora infestans = format: in vivo, Phytophthora infestans (host: tomato, cultivar Bonny Best); conditions: 250 ppm spray; inoculated one day later; approximately 7 days in greenhouse; relative to untreated check plants
[1] = test system: Alternaria solani conidia; experiment: Tomato early blight, % disease control; format: in vivo, Alternaria solani (host: tomato, variety Bonny Best); conditions: 250 ppm spray; inoculated one day later; about 12 days; relative to untreated check plants
Procedure: Compounds of the invention were tested for the control of the Tomato Early Blight organism, Alternaria solani conidia. Tomato (variety Bonny Best) seedlings of 6 to 7 weeks old were used. The tomato plants were sprayed with a 250-ppm solution of the test compound in an acetone-and-water solution containing a small amount of a nonionic emulsifier. The sprayed plants were inoculated one day later with the organism, dried and maintained at 60-80% relative humidity for about 12 days. Percent disease control was based on the percent disease development on untreated check plants.

Uronyces phaseoli tipica = experiment: Leaf rust, % disease control; format: in vivo, Uronyces phaseoli tipica (host: pinto beans); conditions: 250 ppm spray; inoculated thereafter; rated after about 14 days; relative to untreated check plants
Procedure: The leaf-rust was made using pinto beans. The pathogen was Uronyces phaseoli tipica. The pinto-bean plants were sprayed with a 250-ppm solution of the test compound in an acetone-water mixture containing a nonionic emulsifier. The treated plants were inoculated thereafter with the pathogen and then incubated in an environmental chamber for approximately 20 hours at 100% relative humidity and a temperature of 68°-70° F. The plants were then removed from the chamber, allowed to dry, and then maintained in a greenhouse at a 60-80% relative humidity. The rate of infection on the leaves was made after about 14 days. The percent disease control provided by a given test compound was based on the disease reduction relative to untreated check plants.

SMILES | Fungicidal efficacy, % control, PM (Erysiphe polygoni) [%] | Fungicidal efficacy, % control, CLB (Septoria apii) [%] | Fungicidal efficacy, % control, TLB (Phytophthora infestans) [%] | Fungicidal efficacy, % control, TEB [1] [%] | Fungicidal efficacy, % control, LR (Uronyces phaseoli tipica) [%]
C#CC1(N2CN(C3(C#C)CCCCC3)CN(C3(C#C)CCCCC3)C2)CCCCC1 [Compound 1, 1,3,5-TRI(1'-ETHYNYLCYCLOHEXYL)-HEXAHYDRO-1,3,5-TRIAZINE] | 37 | 74 | 100 | 100 | 0
C#CC(C)(C)N1CN(C(C)(C)C#C)CN(C(C)(C)C#C)C1 [Compound 2, 1,3,5-(1',1'-dimethyl-propargyl)-hexahydro-1,3,5-triazine] | 0 | 27 | 0 | 0 | 0
